Laboratory results reported in PubChem BioAssay AID179 (DTP/NCI, 2004).
Several values for one entry are separate records, joined by “and”; a condition that tells them apart may be missing. Equal entries are not always repeated. Activity calls are given as the source filed them.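 The calls were made as follows: active = compounds giving half or more protection of infected cells from virus-caused growth loss, again on retest; inactive = the rest.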

Test system: CEM cells HIV-1 protection, formazan growth assay
Assay: NCI AIDS Antiviral Assay
Details: for IC50: measured here: growth of uninfected CEM cells
Outline: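 Steps: treat uninfected and HIV-1-infected human CEM cells at five drug levels; quantify growth by soluble formazan; retest any compound reaching 50% protection; classify actives from the retest.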

## Cc1ccc([P+](Cc2ccccc2)(c2ccc(C)cc2)c2ccc(C)cc2)cc1
  EC50: > 200 µM
  IC50: 0.851 µM

## Cc1cc(-c2c(O)c3ccc4ccccc4c3oc2=O)no1
  EC50: > 20 µM
  IC50: > 20 µM

## COC12OCCN(C)C1=CC(=O)C1(C)N=NCC12 (stereo unspecified)
  outcome: inactive

## COc1ccccc1C1SCC(=O)N1c1ccc(-c2ccc(-n3c(-c4ccccc4)nc4ccccc4c3=O)cc2)cc1 (stereo unspecified)
  EC50: > 200 µM
  IC50: > 200 µM

## CC(C)(C)OP(O)(=S)OC(C)(C)C
  EC50: > 200 µM
  IC50: > 200 µM

## O=C(NS(=O)(=O)Nc1ccccc1)OCC1CCCCC1
  EC50: > 200 µM
  IC50: 135 µM

## CCC(C)CCOC(=O)c1ccc(N=Cc2ccc(C=Nc3ccc(C(=O)OCCC(C)CC)cc3)cc2)cc1 (stereo unspecified)
  EC50: > 6.61 µM
  IC50: > 6.61 µM

## Nc1nc(Cl)cc(NCCCCCCCCCCNc2cc(Cl)nc(N)n2)n1
  outcome: inactive

## COC(=O)c1c2c(cc3c1CC1(Cc4cc5c(c(C=O)c4C1)CCCC5)C3)CCCC2 (stereo unspecified)
  EC50: > 200 µM
  IC50: 24.5 µM

## O=C1c2cc3c(cc2CC12Cc1ccccc1C2)CCC3
  EC50: > 200 µM
  IC50: 28.2 µM

## O=C(CCC(=O)Nc1cccc(Cl)c1)CC(=O)c1ccc(F)cc1
  outcome: inactive

## Nc1ccc(S(=O)(=O)N/N=C/c2ccco2)cc1
  EC50: > 676 µM
  IC50: > 676 µM

## CC(C)(C)OC(=O)N1N=NC2C1C1CC(OCc3ccccc3)(OCc3ccccc3)C2O1 (stereo unspecified)
  EC50: > 15.8 µM
  IC50: > 15.8 µM

## O=c1[nH]nc(-c2ccccc2)n1/N=C/c1c(O)ccc2ccccc12
  EC50: > 200 µM
  IC50: 112 µM

## Fc1ccccc1CN1COc2c(cc(Cl)c3cccnc23)C1
  EC50: > 200 µM
  IC50: 3.09 µM

## CCOC(=O)CNC(=O)CNC(=O)CNC(=O)CNNc1c(OCc2ccccc2)c(=O)c1=O
  EC50: > 200 µM
  IC50: > 200 µM

## CC(C)N(C(=O)C12C3C4C5(C#N)C3C1(I)C5C42I)C(C)C (stereo unspecified)
  EC50: > 14.1 µM
  IC50: > 14.1 µM

## CN1C(=O)c2ccccc2C(C(=O)O)C1c1ccc2c(c1)OCO2 (stereo unspecified)
  EC50: > 151 µM
  IC50: > 151 µM

## Cc1ccc(S(=O)(=O)NC(=O)C2S(=O)(=O)OCCOS2(=O)=O)cc1
  EC50: > 3890 µM
  IC50: 77.6 µM

## O=C1NC(=O)C2(CCCCC2)N1
  EC50: > 200 µM
  IC50: > 200 µM

## CC(=O)c1ccc(NC(=O)/C(Cc2ccccn2)=N/NC(=O)C[N+](C)(C)C)cc1
  outcome: inactive

## NC1CNC(=O)c2cscc21 (stereo unspecified)
  EC50: > 200 µM
  IC50: > 200 µM

## NCC1Nc2ccccc2[C@@H](O)C1O (stereo partly specified)
  EC50: > 933 µM
  IC50: > 933 µM

## Nc1ccc(S(=O)(=O)Nc2nc3ccccc3nc2Nc2ccc(S(N)(=O)=O)cc2)cc1
  EC50: > 200 µM
  IC50: 20.4 µM

## Cc1occc1C(=S)Nc1ccc(Cl)c(OCC(=O)OC(C)(C)C)c1
  EC50: 12.9 µM
  IC50: 28.2 µM

## NNC(=O)C1C(C(=O)NN)C2C3C=CC(C4C(=O)NC(=O)C34)C12 (stereo unspecified)
  EC50: > 200 µM
  IC50: > 200 µM

## CC(=O)OCC1OC(SC2=N/C(=C\c3ccc(Br)s3)C(=O)N2c2ccccc2)C(OC(C)=O)C(OC(C)=O)C1OC(C)=O (stereo unspecified)
  EC50: > 200 µM
  IC50: 123 µM and 33.9 µM

## CCCc1cc(=O)oc2c3c(cc(OC(C)CC)c12)O[C@H](C)[C@@H](C)[C@@H]3O (stereo partly specified)
  EC50: 3.63 µM
  IC50: 37.2 µM

## CCC1C(=O)OC2OC(c3ccccc3)(c3ccccc3)NC21 (stereo unspecified)
  EC50: > 200 µM
  IC50: > 100 µM

## CNS(=O)(=O)c1c(N)ncn1C
  EC50: > 1100 µM
  IC50: > 1100 µM

## CCOC(=O)C(=Cc1cccc(Br)c1)C(=O)OCC
  EC50: > 759 µM
  IC50: 468 µM

## CCc1cc(CCC(=O)Nc2c(C)cccc2C)nc(NC#N)n1
  outcome: inactive

## CN(CCSSCCN(C)C(N)=S)C(N)=S
  EC50: > 200 µM
  IC50: > 200 µM

## COC(=O)c1cc(C(=CCN[C@@H]2CC[C@@]3(C)[C@@H](CC[C@@H]4[C@@H]3CC[C@]3(C)[C@@H]([C@H](C)CCCC(C)C)CC[C@@H]43)C2)c2cc(Cl)c(OC)c(C(=O)OC)c2)cc(Cl)c1OC
  EC50: > 100 µM
  IC50: > 100 µM

## CSc1c(C#N)c(S)[nH]c(=O)c1C#N
  EC50: 83.2 µM
  IC50: 126 µM

## COc1c2occc2c(S(=O)(=O)O)c2ccc(=O)oc12
  EC50: > 302 µM
  IC50: > 302 µM

## O=c1c2ccccc2sc2ccccc12
  EC50: > 200 µM
  IC50: > 200 µM

## CC(=O)Nc1cc(N=Nc2ccc(NC(=O)c3ccc(N)cc3)cc2C)c(S(=O)(=O)O)cc1N=Nc1ccc(N=Nc2ccc(S(=O)(=O)O)cc2)cc1
  EC50: 5.62 µM
  IC50: > 100 µM

## CCO/S(=N/S(=O)(=O)c1ccccc1)c1ccccc1[N+](=O)[O-] (stereo unspecified)
  EC50: > 708 µM
  IC50: 182 µM

## CNC(=O)CN1CC(=O)N(C)C(=O)C1
  EC50: > 1260 µM
  IC50: > 1260 µM

## Cc1cc(C)c2c(c1)CC1(Cc3c(C)ccc(C)c3C1=O)C2=O (stereo unspecified)
  EC50: > 100 µM
  IC50: > 100 µM

## CC1=C(C(=O)NNC(=O)CC#N)CC(C(=O)NNC(=O)CC#N)=C(C)N1
  EC50: > 200 µM
  IC50: 123 µM

## O=S(=O)(O)ON=C1c2ccccc2-c2ccccc21
  EC50: > 200 µM
  IC50: 195 µM

## CN(C)c1ccc(/C=C2/SC(=S)NC2=O)cc1
  EC50: > 38 µM
  IC50: > 38 µM

## C1CN(C23OC4(N5CCOCC5)C5C6CC(C7C6C4C72)C53)CCO1 (stereo unspecified)
  EC50: > 200 µM
  IC50: > 200 µM

## CCN(CC)CCS(=O)c1c2cc(OC)ccc2nc2ccc(OC)cc12 (stereo unspecified)
  EC50: > 200 µM
  IC50: 3.39 µM

## CC(=O)NC(NNC(NC(C)=O)(c1ccccc1)c1ccccc1)(c1ccccc1)c1ccccc1
  EC50: > 200 µM
  IC50: > 200 µM

## O=C1NC(N2CCOCC2)=N/C1=C\c1ccc(Cl)cc1
  EC50: > 200 µM
  IC50: > 200 µM

## COc1cc(/C=C(\NC(=O)c2ccccc2)c2nc3ccc4c(c3[nH]2)C(=O)c2ccccc2C4=O)cc(OC)c1OC
  outcome: inactive

## NC(CS)C(=O)O (stereo unspecified)
  EC50: > 182 µM
  IC50: > 182 µM

## CCOC(=O)NNC(=O)NCCNC(=O)NNC(=O)OCC
  EC50: > 200 µM
  IC50: > 200 µM

## Nc1ccc(N=O)c(N)n1
  EC50: > 200 µM
  IC50: > 200 µM

## C=Cc1ccc(C)[n+](C[Si](C)(C)O[Si](C)(C)C[n+]2cc(C=C)ccc2C)c1
  EC50: > 380 µM
  IC50: 245 µM

## O=C1CCC(c2ccccc2)(C2(c3ccccc3)CCC(=O)O2)O1 (stereo unspecified)
  EC50: > 200 µM
  IC50: 151 µM

## CC(C)(NO)/C(=N\O)c1ccccc1
  EC50: > 200 µM
  IC50: > 200 µM

## O=C(c1no[n+]([O-])c1C(=O)c1csc2ccccc12)c1csc2ccccc12
  EC50: > 200 µM
  IC50: 1.05 µM

## CN(Cc1ccccc1)c1nc(=[N+](C)C)ss1
  outcome: inactive

## Cc1ccc(C)c(N=Nc2c(S(=O)(=O)O)cc3cc(NC(=O)Nc4ccc5c(O)c(N=Nc6ccc7cc(S(=O)(=O)O)ccc7c6)c(S(=O)(=O)O)cc5c4)ccc3c2O)c1
  EC50: 16.2 µM
  IC50: > 100 µM

## CCNC(=O)C(O)C1(O)CCC2[C@@H]3CCC4=CC(=O)C=C[C@]4(C)C3[C@@H](O)C[C@@]21C (stereo partly specified)
  outcome: inactive

## Cc1ccccc1NS(=O)(=O)c1c(N)ncn1C
  EC50: > 832 µM
  IC50: > 832 µM

## CC1(Cl)CC(O)C2(CC1Br)C1(C)OC1C1OC1(Br)C2(C)C (stereo unspecified)
  EC50: > 200 µM
  IC50: 15.1 µM

## COc1ccc(/C(=N/Nc2nc3ccccc3[nH]2)C(=O)O)cc1
  EC50: > 200 µM
  IC50: > 200 µM

## CC1=Nc2ccccc2NC(C)(C)C1
  EC50: > 955 µM
  IC50: 56.2 µM and 37.2 µM and > 200 µM

## Nc1[nH]c(=O)nc(Nc2ccc(Cl)c(Cl)c2)c1N=O
  EC50: > 200 µM
  IC50: 13.5 µM

## O=C1N(c2ccccc2)N=C(c2ccccc2)C12CC2
  EC50: > 200 µM
  IC50: 107 µM

## FC(F)(Sc1ncc[nH]1)c1nc2ccccc2o1
  EC50: 43.7 µM
  IC50: > 200 µM

## COC(=O)C1C2OC(C)(C)OC2CN1S(=O)(=O)c1ccc(C)cc1 (stereo unspecified)
  outcome: inactive

## CCc1cccc(C(C)(C)C)c1NC(=S)N/C=C(\C#N)C(=O)c1ccc2ccccc2c1
  EC50: > 200 µM
  IC50: 93.3 µM

## O=C(Cn1c2c(c3ccccc31)CCCC2)N1CCCCC1
  EC50: > 200 µM
  IC50: > 200 µM

## C(#CC1(Nc2ccccc2)CCN(Cc2ccccc2)CC1)C1(Nc2ccccc2)CCN(Cc2ccccc2)CC1
  EC50: > 100 µM
  IC50: 74.1 µM

## O=C(O)CCCc1ccc2c(c1)C(C(=O)O)CC2 (stereo unspecified)
  EC50: > 200 µM
  IC50: > 200 µM

## CC(C)OC(=S)SSSC(=S)OC(C)C
  EC50: > 200 µM
  IC50: 19.1 µM

## CCOc1c2c(nn(C)c1=O)Oc1ccccc1N2CCCN1CCOCC1
  EC50: > 589 µM
  IC50: 19.1 µM

## COC(=O)/C(=C/CC(N=C(c1ccccc1)c1ccccc1)C(=O)OC)N=C(c1ccccc1)c1ccccc1 (stereo unspecified)
  EC50: > 9.77 µM
  IC50: > 9.77 µM

## COCCOC(=O)NCn1cc(-c2ccccc2)nn1
  EC50: > 200 µM
  IC50: > 200 µM

## COc1cc(C2C3=C(COC3=O)Oc3cc4c(cc32)OCO4)cc(OC)c1O (stereo unspecified)
  EC50: > 2 µM
  IC50: 0.0562 µM

## C[C@@H]1O[C@@H](O[C@H]2CC[C@]3(C=O)[C@H]4CC[C@]5(C)[C@@H](c6ccc(=O)oc6)CC[C@]5(O)[C@@H]4CC[C@]3(O)C2)[C@H](O)[C@H](O)[C@H]1O[C@@H]1O[C@H](CO)[C@@H](O)[C@H](O)[C@H]1O
  EC50: > 0.2 µM
  IC50: 0.0038 µM

## O=c1nc(NC(c2ccccc2)(c2ccccc2)c2ccccc2)ccn1CCO
  outcome: inactive

## COc1cc([N+](=O)[O-])ccc1N1C(=O)C2c3[nH]c4ccccc4c3C3CCC(C(C)(C)C)CC3C2C1=O (stereo unspecified)
  EC50: > 200 µM
  IC50: 138 µM

## CCOC(=O)CNC(=O)N(CC)C12CC3CC(CC(C3)C1)C2
  EC50: > 200 µM
  IC50: 129 µM

## CC1(C)C[C@H]2[C@H](O)C(CO)=C3C(=O)[C@@H](O)[C@]3(C)[C@H]2C1
  outcome: inactive

## O=C1c2cc(O)c(O)cc2O[C@H](c2ccc(O)c(O)c2)[C@H]1O
  EC50: > 200 µM
  IC50: 170 µM

## O=C(CC(=O)C1CCOC1=O)C(=O)Nc1ccc(Cl)cc1Cl (stereo unspecified)
  outcome: inactive

## O=C(OCCSSCCOC(=O)c1ccc([N+](=O)[O-])cc1)c1ccc([N+](=O)[O-])cc1
  EC50: > 200 µM
  IC50: 12 µM

## Cc1[nH]n(C(=N)N)c(=O)c1CCO
  EC50: > 200 µM
  IC50: > 200 µM

## COc1cc2c3c(c1OC)-c1ccccc1C(C(OC(C)=O)c1ccccc1)C3N(C)CC2 (stereo unspecified)
  outcome: inactive

## Cc1cc(C)c(NS(=O)c2cccc(Cl)c2)c(C)c1 (stereo unspecified)
  EC50: > 123 µM
  IC50: > 123 µM
